Experimental data: patent US20090069317A1, “Insecticidal Methods Using 3-Amino-1,2-Benzisothiazole Derivatives” (BASF SE, priority 2005, published 2009)

Tests used:
[1] = tested on: Cotton Aphid (Aphis gossypii); test: Cotton aphid (Aphis gossypii) cotyledon dip test, mortality; format: in vivo; settings: 120 h, cotton cotyledons dipped, mortality counts after 5 days, read-out: mortality in comparison with untreated controls
Excerpt: B.1 Cotton Aphid (Aphis gossypii)
(§1) The active compounds were formulated in 50:50 acetone:water and 100 ppm Kinetic® surfactant.
Cotton plants at the cotyledon stage (one plant per pot) were infested by placing a heavily infested leaf from the main colony on top of each cotyledon. The aphids were allowed to transfer to the host plant overnight, and the leaf used to transfer the aphids was removed. The cotyledons were dipped in the test solution and allowed to dry. After 5 days, mortality counts were made.

[2] = tested on: Green Peach Aphid (Myzus Persicae); test: Green peach aphid (Myzus persicae) pepper leaf dip test, mortality; format: in vivo; settings: foliar, 120 h, pepper plant leaves dipped, aphid mortality after 5 days, read-out: mortality in comparison with untreated controls
Excerpt: B.2 Green Peach Aphid (Myzus Persicae)
as §1
Pepper plants in the 2nd leaf-pair stage (variety ‘California Wonder’) were infested with approximately 40 laboratory-reared aphids by placing infested leaf sections on top of the test plants. The leaf sections were removed after 24 hr. The leaves of the intact plants were dipped into gradient solutions of the test compound and allowed to dry. Test plants were maintained under fluorescent light (24 hour photoperiod) at about 25° C. and 20-40% relative humidity. Aphid mortality on the treated plants, relative to mortality on check plants, was determined after 5 days.

SMILES	mortality at 300 ppm [1]	mortality at 300 ppm [2]
COC(CN(C)C1=NS(=O)(=O)c2cccc(Cl)c21)OC [Compound 17]	> 86%	
CCN(C1=NS(=O)(=O)c2cccc(OC(F)F)c21)C(C)C [Compound 33]	> 86%	> 86%
CCC(C)N(O)C1=NS(=O)(=O)c2cccc(Cl)c21 (stereo not drawn) [Compound 99]	> 86%	
CCN(C1=NS(=O)(=O)c2cccc(OC)c21)C(C)C [Compound 28]	> 86%	> 86%
C=CCN(C)C1=NS(=O)(=O)c2cccc(Cl)c21 [Compound 20]	> 86%	
CCN(C)c1n[s+]([O-])c2cccc(Cl)c12 (stereo not drawn) [Compound 88]	> 86%	> 86%
CCN(CC(F)(F)F)C1=NS(=O)(=O)c2cccc(Cl)c21 [Compound 13]	> 86%	
CCN(CC)c1n[s+]([O-])c2cccc(OC)c12 (stereo not drawn) [Compound 95]	> 86%	> 86%
CCN(C)c1n[s+]([O-])c2cccc(OC)c12 (stereo not drawn) [Compound 85]	> 86%	> 86%
O=S1(=O)N=C(N2CCCC2)c2c(Cl)cccc21 [Compound 1]	> 86%	
CCN(CC)c1nsc2cccc(Cl)c12 [Compound 58]	> 86%	> 86%
CCN(C)c1nsc2cccc(F)c12 [Compound 79]	> 86%	
CCCN(CCC)C1=NS(=O)(=O)c2cccc(F)c21 [Compound 67]	> 86%	
COC(C)CN(C)C1=NS(=O)(=O)c2cccc(Cl)c21 (stereo not drawn) [Compound 18]	> 86%	
C=CCN(C)C1=NS(=O)(=O)c2cccc(OC(F)F)c21 [Compound 40]	> 86%	> 86%
CCN(C)c1nsc2ccc(I)c(Cl)c12 [Compound 60]	> 86%	
COc1cccc2snc(N(C)C(C)C)c12 [Compound 82]	> 86%	> 86%
CN(C)C1=NS(=O)(=O)c2cccc(F)c21 [Compound 63]	> 86%	
COc1cccc2c1C(N(C(C)C)C1CC1)=NS2(=O)=O [Compound 55]	> 86%	
CCN(CC)C1=NS(=O)(=O)c2c(F)ccc(OC)c21 [Compound 89]	> 86%	> 86%
CN(CC(F)(F)F)C1=NS(=O)(=O)c2cccc(Cl)c21 [Compound 56]	> 86%	
C#CCN(C)C1=NS(=O)(=O)c2cccc(Cl)c21 [Compound 21]	> 86%	

SMILES	mortality at 300 ppm [1]	mortality at 300 ppm [2]
C#CCON(C1=NS(=O)(=O)c2cccc(Cl)c21)C(C)C [Compound 105]	> 86%	
CCON(CC)C1=NS(=O)(=O)c2cccc(OC(F)F)c21 [Compound 112]	> 86%	> 86%
CC(C)N(C)c1nsc2cccc(Cl)c12 [Compound 86]	> 86%	> 86%
C#CCN(C)C1=NS(=O)(=O)c2cccc(F)c21 [Compound 66]	> 86%	
COc1cccc2c1C(N1CCOCC1)=NS2(=O)=O [Compound 26]	> 86%	
CN(c1nsc2cccc(Cl)c12)C1CCCC1 [Compound 93]	> 86%	> 86%
CCN(CC)c1n[s+]([O-])c2cccc(Cl)c12 (stereo not drawn) [Compound 74]	> 86%	> 86%
CC(C)N(C)C1=NS(=O)(=O)c2cccc(OC(F)F)c21 [Compound 41]	> 86%	> 86%
C=CCN(C)c1nsc2cccc(Cl)c12 [Compound 45]	> 86%	
CC(C)CN(C)c1n[s+]([O-])c2cccc(Cl)c12 (stereo not drawn) [Compound 77]	> 86%	
CC(C)CN(C)C1=NS(=O)(=O)c2cccc(F)c21 [Compound 70]	> 86%	
CC(C)CN(C)c1nsc2cccc(Cl)c12 [Compound 44]	> 86%	
COC(CN(C)c1nsc2cccc(Cl)c12)OC [Compound 46]	> 86%	
COC(OC)C(C)N(C)C1=NS(=O)(=O)c2cccc(Cl)c21 (stereo not drawn) [Compound 16]	> 86%	
CN(C)C1=NS(=O)(=O)c2cccc(OC(F)F)c21 [Compound 32]	> 86%	> 86%
CN(C)c1n[s+]([O-])c2cccc(Cl)c12 (stereo not drawn) [Compound 78]	> 86%	> 86%
COC(C)CN(C)c1nsc2cccc(Cl)c12 (stereo not drawn) [Compound 57]	> 86%	> 86%
CCN(C)c1nsc2cccc(OC(F)F)c12 [Compound 80]	> 86%	> 86%
CCCN(CC1CC1)C1=NS(=O)(=O)c2cccc(F)c21 [Compound 62]	> 86%	> 86%
CCN(C)c1nsc2cccc(OC)c12 [Compound 81]	> 86%	> 86%
CCN(CC)C1=NS(=O)(=O)c2cccc(F)c21 [Compound 65]	> 86%	
C=CCN(CC=C)C1=NS(=O)(=O)c2cccc(Cl)c21 [Compound 10]	> 86%	

SMILES	mortality at 300 ppm [1]	mortality at 300 ppm [2]
CON(C)C1=NS(=O)(=O)c2cccc(F)c21 [Compound 100]	> 86%	
CCN(CC)c1nsc2ccc(I)c(Cl)c12 [Compound 61]	> 86%	
C#CCN(C1=NS(=O)(=O)c2cccc(F)c21)C(C)C [Compound 72]	> 86%	
CC(C)N(C1=NS(=O)(=O)c2cccc(OC(F)F)c21)C1CC1 [Compound 35]	> 86%	
CC(C)N(C)C1=NS(=O)(=O)c2cccc(Cl)c21 [Compound 52]	> 86%	
COc1cccc2c1C(N(C)C)=NS2(=O)=O [Compound 54]	> 86%	
CC(C)N(C1=NS(=O)(=O)c2cccc(F)c21)C1CC1 [Compound 71]	> 86%	
C#CCN(C1=NS(=O)(=O)c2cccc(OC)c21)C(C)C [Compound 29]	> 86%	
CCON(CC)C1=NS(=O)(=O)c2cccc(Cl)c21 [Compound 106]	> 86%	
COc1cccc2c1c(N(C)CC(C)C)n[s+]2[O-] (stereo not drawn) [Compound 84]	> 86%	
CC(C)ON(C)C1=NS(=O)(=O)c2cccc(Cl)c21 [Compound 102]	> 86%	
CCCN(C)C1=NS(=O)(=O)c2cccc(F)c21 [Compound 68]	> 86%	
O=S1(=O)N=C(N(O)Cc2ccccc2)c2c(Cl)cccc21 [Compound 104]	> 86%	
COc1ccc(F)c2c1C(N(C)C)=NS2(=O)=O [Compound 90]	> 86%	
C#CCON(C)C1=NS(=O)(=O)c2cccc(Cl)c21 [Compound 103]	> 86%	
C#CCN(OCC)C1=NS(=O)(=O)c2cccc(Cl)c21 [Compound 107]	> 86%	
CC(C)CN(C)C1=NS(=O)(=O)c2cccc(Cl)c21 [Compound 22, (4-Chloro-1,1-dioxo-1H-1λ^6-benzo[d]isothiazol-3-yl)-isobutyl-methyl-amine]	> 86%	
C#CC(C)N(C1=NS(=O)(=O)c2cccc(Cl)c21)C(C)C (stereo not drawn) [Compound 14]	> 86%	
CC(C)ON(C1=NS(=O)(=O)c2cccc(Cl)c21)C(C)C [Compound 101]	> 86%	
C=CCN(C)C1=NS(=O)(=O)c2cccc(F)c21 [Compound 69]	> 86%	
